Reference: patent US7098199B2 (Sterix Limited, priority 1991, dated 2006)
Blank lines part the entries; values can stand above or below the compound they belong to.

Experiments:
[1] = molecular target: T1, Steroid sulphatase (Steryl Sulphatase EC3.1.6.2) (Homo sapiens, UniProt P08842); assay: Steroid sulphatase activity in intact MCF-7 cells; type: cell-based; conditions: for Steroid Sulphatase Activity: mean ± 1 S.D., n = 3
T1 construct: endogenous in cells; host or cells: MCF-7 human breast cancer cells
T1 sequence (P08842 22-583): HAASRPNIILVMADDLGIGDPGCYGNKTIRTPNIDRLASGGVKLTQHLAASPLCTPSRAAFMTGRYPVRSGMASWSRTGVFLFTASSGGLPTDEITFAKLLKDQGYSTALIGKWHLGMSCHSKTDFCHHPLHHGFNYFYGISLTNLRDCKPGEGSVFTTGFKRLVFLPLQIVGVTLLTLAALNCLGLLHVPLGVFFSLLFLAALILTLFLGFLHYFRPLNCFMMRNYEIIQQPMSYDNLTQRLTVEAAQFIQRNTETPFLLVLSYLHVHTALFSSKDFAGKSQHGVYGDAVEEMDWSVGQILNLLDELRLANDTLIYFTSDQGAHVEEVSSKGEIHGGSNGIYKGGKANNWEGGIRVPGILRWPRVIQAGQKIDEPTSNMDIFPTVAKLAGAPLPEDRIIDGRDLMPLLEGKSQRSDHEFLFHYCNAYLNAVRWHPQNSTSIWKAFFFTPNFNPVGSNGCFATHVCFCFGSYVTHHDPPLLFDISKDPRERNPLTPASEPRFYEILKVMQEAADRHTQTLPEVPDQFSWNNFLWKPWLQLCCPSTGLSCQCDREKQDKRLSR
Procedure: Steroid sulphatase is defined as: Steryl Sulphatase EC3.1.6.2.
Steroid sulphatase activity was measured in vitro using intact MCF-7 human breast cancer cells. This hormone dependent cell line is widely used to study the control of human breast cancer cell growth. […] Cells were maintained in Minimal Essential Medium (MEM) (Flow Laboratories, Irvine, Scotland) containing 20 mM HEPES, 5% foetal bovine serum, 2 mM glutamine, nonessential amino acids and 0.075% sodium bicarbonate. Up to 30 replicate 25 cm^2 tissue culture flasks were seeded with approximately 1×10^5 cells/flask using the above medium. Cells were grown to 80% confluency and medium was changed every third day.
Each batch of experiments included incubations of microsomes prepared from a sulphatase-positive human placenta (positive control) and flasks without cells (to assess apparent non-enzymatic hydrolysis of the substrate). The number of cell nuclei per flask was determined using a Coulter Counter after treating the cell monolayers with Zaponin. One flask in each batch was used to assess cell membrane status and viability using the Trypan Blue exclusion method (Phillips, H. J. (1973) In: Tissue culture and applications,[eds: Kruse, D. F. & Patterson, M. K.]; pp. 406–408; Academic Press, New York).
Unpaired Student's t-test was used to test the statistical significance of results.
An identical experimental protocol to that described in Example 4 was used to generate results for oestrone-3-N,N-diimethylsulphamate except that incubations contained oestrone-3-N,N-dimethylsulphaiate (5 concentrations: 0; 0.001 μM; 0.01 μM; 0.1 μM; 1 μM) in place of oestrone-3-sulphamate.

Steroid sulphatase [2] = molecular target: T2, Steroid sulphatase (Homo sapiens, UniProt P08842); assay: Steroid sulphatase activity in placental microsomes; conditions: for Steroid Sulphatase Activity: mean of 2 estimates
T2 sequence (P08842 22-583): T1 sequence (P08842 22-583)

Steroid sulphatase [3] = molecular target: T3, Steroid sulphatase (Rattus norvegicus, UniProt P15589); assay: % inhibition in vivo from a single dose (Example 9); design: from tissue; host or cells: tissue of treated animals; tissue not given; conditions: single dose of 10 mg/kg
T3 sequence (P15589 20-577): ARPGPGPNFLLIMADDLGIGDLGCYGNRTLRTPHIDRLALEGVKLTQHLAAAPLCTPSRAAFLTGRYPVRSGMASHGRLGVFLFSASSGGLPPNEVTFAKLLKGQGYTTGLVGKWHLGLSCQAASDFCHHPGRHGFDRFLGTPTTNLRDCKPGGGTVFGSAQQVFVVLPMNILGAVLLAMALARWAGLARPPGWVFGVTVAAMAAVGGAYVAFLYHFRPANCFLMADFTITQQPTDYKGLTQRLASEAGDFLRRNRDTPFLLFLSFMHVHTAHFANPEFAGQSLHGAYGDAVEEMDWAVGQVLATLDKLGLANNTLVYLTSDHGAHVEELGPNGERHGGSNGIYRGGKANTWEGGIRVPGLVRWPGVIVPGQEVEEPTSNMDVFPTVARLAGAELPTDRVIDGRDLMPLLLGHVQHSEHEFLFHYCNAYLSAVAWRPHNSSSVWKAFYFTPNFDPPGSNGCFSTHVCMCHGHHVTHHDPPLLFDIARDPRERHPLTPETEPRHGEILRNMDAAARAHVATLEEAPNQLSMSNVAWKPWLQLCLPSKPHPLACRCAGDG

Steroid sulphatase [4] = molecular target: T2, Steroid sulphatase; assay: biochemical
E1-STS [5] = molecular target: T4, E1-STS (Homo sapiens, UniProt P08842); assay: Hydrolysis of coumarin sulphate (12) by placental microsomes, TLC; type: biochemical
T4 construct: from tissue; host or cells: placental microsomes (100,000 g fraction)
T4 sequence (P08842 22-583): T1 sequence (P08842 22-583)

Steroid sulphatase [6] = molecular target: T3, Steroid sulphatase; assay: Steroid sulphatase activity in liver microsome preparations from rats treated subcutaneously; type: in vivo; design: except that the tissue source was rat liver; from tissue; host or cells: liver of female Wistar rats; conditions: 10 mg/kg/day s.c. for 7 days, rat liver microsomes; for Steroid Sulphatase Activity: mean ± 1 S.D., n = 3
[7] = molecular target: T1, Steroid sulphatase (Steryl Sulphatase EC3.1.6.2); assay: Steroid sulphatase activity in MCF-7 cells pre-incubated with inhibitor and washed; type: cell-based; conditions: pre-treatment 2 hours with 0.1 μM, cells washed 3 times; mean ± 1 S.D., n = 3
[8] = Chemical and thermal stability of compound 12; type: physicochemical; conditions: sodium hydroxide in methanol
From the text: Two equivalents of sodium hydroxide are required for consuming excess sulphur trioxide-pyridine complex to yield the neutral sodium sulphate. Insufficient amount of sodium hydroxide will therefore lead to the formation of sodium hydrogen sulphate which is acidic.

sulphatase = molecular target: T5, sulphatase (Rattus norvegicus, UniProt P15589); assay: Sulphatase activity in white blood cells of rats after oral dosing; type: in vivo; conditions: for % Inhibition MD / % Inhibition SD: white blood cells; for % Inhibition SD: single dose
T5 construct: from tissue; host or cells: rat white blood cells
T5 sequence (P15589 20-577): T3 sequence (P15589 20-577)
Procedure: Inhibition of sulphatase activity was assessed in white blood cells (wbcs) that were collected after a SD or MD. Sulphatase activity was assayed using labelled oestrone sulphate as the substrate and measuring the release of oestrone.

uterine weight = assay: Oestrogenic activity: uterine weight in ovariectomised rats (compound 14); type: in vivo, rat; conditions: 1 mg/kg subcutaneously for 5 days
E1-STS [9] = molecular target: T6, E1-STS (Rattus norvegicus, UniProt P15589); assay: E1-STS activity in uteri of treated ovariectomised rats; type: in vivo; conditions: 1 mg/kg subcutaneously for 5 days, compared with untreated animals
T6 construct: The E1-STS activity in the uteri obtained from these animals; from tissue; host or cells: rat uterus
T6 sequence (P15589 20-577): T3 sequence (P15589 20-577)

[10] = molecular target: T7, oestrone sulphatase (E1-STS) (Homo sapiens, UniProt P08842); type: cell-based; conditions: intact MCF-7 cells, 20 h
T7 sequence (P08842 22-583): T1 sequence (P08842 22-583)

Structure (SMILES): C[C@]12CC[C@@H]3c4ccc(OS(N)(=O)=O)cc4CC[C@H]3[C@@H]1CCC2=O [Oestrone-3-sulphamate]
inhibition at 10 pM ([1]; MCF7, inhibitor 0.01 nM, read-out: % reduction over control (% inhibition)): 17.2%
inhibition at 0.0001 µM ([1]; MCF7, inhibitor 0.1 nM, read-out: % reduction over control (% inhibition)): 60.9%
inhibition at 0.001 µM ([1]; MCF7, inhibitor 1 nM, read-out: % reduction over control (% inhibition)): 95%
inhibition at 0.01 µM ([1]; MCF7, inhibitor 0.01 μM, read-out: % reduction over control (% inhibition)): 98.8%
inhibition at 0.1 µM ([1]; MCF7, inhibitor 0.1 μM, read-out: % reduction over control (% inhibition)): 99.2%
inhibition at 1 µM ([1]; MCF7, inhibitor 1 μM, read-out: % reduction over control (% inhibition)): 99.5%
Steroid Sulphatase Activity ([1]; inhibitor 0.01 pM): 362.3 ± 21.2 fmol/20 hr/10^6 cells
Steroid Sulphatase Activity ([1]; inhibitor 0.1 pM): 330.7 ± 17.8 fmol/20 hr/10^6 cells
Steroid Sulphatase Activity ([1]; inhibitor 1 pM): 321.8 ± 6.2 fmol/20 hr/10^6 cells
Steroid Sulphatase Activity ([1]; inhibitor 0.01 nM): 265.1 ± 11.0 fmol/20 hr/10^6 cells
Steroid Sulphatase Activity ([1]; inhibitor 0.1 nM): 124.8 ± 12.4 fmol/20 hr/10^6 cells
Steroid Sulphatase Activity ([1]; inhibitor 1 nM): 16.49 ± 4.7 fmol/20 hr/10^6 cells
Steroid Sulphatase Activity ([1]; inhibitor 0.01 μM): 3.92 ± 0.4 fmol/20 hr/10^6 cells
Steroid Sulphatase Activity ([1]; inhibitor 0.1 μM): 2.53 ± 1.1 fmol/20 hr/10^6 cells
Steroid Sulphatase Activity ([1]; inhibitor 1 μM): 1.68 ± 0.7 fmol/20 hr/10^6 cells
Steroid Sulphatase Activity ([1]; inhibitor 1 fM): 353.3 ± 39.0 fmol/20 hr/10^6 cells
IC50 (Steroid sulphatase [4]): 70 nM
effect on hydrolysis of compound (12) by E1-STS (in words) (E1-STS [5]; EMATE 10 μM): reduced the hydrolysis of compound (12) by E1-STS
% reduction over control (Steroid sulphatase [6]; assay substrate DHA-S): 94.2%
Steroid Sulphatase Activity (Steroid sulphatase [6]; assay substrate DHA-S): 0.1 ± 0.01 nmol/30 min/200 mg protein
% reduction over control (Steroid sulphatase [6]; assay substrate E1-S): 98.4%
Steroid Sulphatase Activity (Steroid sulphatase [6]; assay substrate E1-S): 0.34 ± 0.1 nmol/30 min/200 mg protein
% reduction over control (% inhibition) (Steroid sulphatase [2]; 0.05 µM): 44.0%
% reduction over control (% inhibition) (Steroid sulphatase [2]; 0.1 μM): 60.2%
% reduction over control (% inhibition) (Steroid sulphatase [2]; 0.2 µM): 81.8%
% reduction over control (% inhibition) (Steroid sulphatase [2]; 0.4 µM): 89.2%
% reduction over control (% inhibition) (Steroid sulphatase [2]; 0.6 µM): 92.0%
% reduction over control (% inhibition) (Steroid sulphatase [2]; 0.8 µM): 93.6%
% reduction over control (% inhibition) (Steroid sulphatase [2]; 1 μM): 93.3%
Steroid Sulphatase Activity (Steroid sulphatase [2]; inhibitor 0.05 μM): 430.4 pmol/hr/0.1 mg protein
Steroid Sulphatase Activity (Steroid sulphatase [2]; inhibitor 0.1 μM): 305.9 pmol/hr/0.1 mg protein
Steroid Sulphatase Activity (Steroid sulphatase [2]; inhibitor 0.2 μM): 140.0 pmol/hr/0.1 mg protein
Steroid Sulphatase Activity (Steroid sulphatase [2]; inhibitor 0.4 μM): 83.3 pmol/hr/0.1 mg protein
Steroid Sulphatase Activity (Steroid sulphatase [2]; inhibitor 0.6 μM): 61.8 pmol/hr/0.1 mg protein
Steroid Sulphatase Activity (Steroid sulphatase [2]; inhibitor 0.8 μM): 49.2 pmol/hr/0.1 mg protein
Steroid Sulphatase Activity (Steroid sulphatase [2]; inhibitor 1.0 μM): 51.6 pmol/hr/0.1 mg protein
Steroid Sulphatase Activity [7]: 1.7 ± 0.2 fmol/20 hr/10^6 cells

Structure (SMILES): NS(=O)(=O)Oc1ccc2c(C(F)(F)F)cc(=O)oc2c1 [compound 16, 4-(trifluoromethylcoumarin)-7-O-sulphamate]
inhibition of oestrone sulphatase at 10 μM [10]: 71.5%

Second part, led by results:

inhibition at 10 µM ([1]; MCF7): 99 ± 2%
melting point: > 42 °C (dec.)
% Inhibition in Placental Microsomes at 10 μM (Steroid sulphatase [2]; 10 μM): 40±2%
% Inhibition in vivo from a single dose of 10 mg/kg (Steroid sulphatase [3]): 22±3%
Structure (SMILES): CCCCCCCOc1ccc(OS(N)(=O)=O)cc1 [9a]

substrate for E1-STS (in words) (E1-STS [5]; 100 μg incubated for 1 hour with placental microsomes): is indeed a substrate for the sulphatase
Structure (SMILES): Cc1cc(=O)oc2cc(OS(=O)(=O)[O-])ccc12.[Na+] [Compound 12, 7-(Sulphoxy)4-Methylcoumarin. sodium salt, reference compound]
stability in bases and acidic conditions (in words) [8]: stable in bases such as sodium hydroxide in methanol but not in acidic conditions

% Inhibition MD (sulphatase; 0.1 mg/kg oral daily for seven days): 65%
% Inhibition SD (sulphatase; 0.1 mg/kg oral): 72%
% Inhibition MD (sulphatase; 1.0 mg/kg oral daily for seven days): 85%
% Inhibition SD (sulphatase; 1.0 mg/kg oral): 85%
% Inhibition MD (sulphatase; 10.0 mg/kg oral daily for seven days): 89%
% Inhibition SD (sulphatase; 10.0 mg/kg oral): 96%
oral activity in rats (in words) (sulphatase; oral, rats): potent oral activity
inhibition of E1-STS activity in the uteri (E1-STS [9]): 89.4%
Structure (SMILES): Cc1cc(=O)oc2cc(OS(N)(=O)=O)ccc12 [compound 14]
uterine weight (oestrogenic activity, in words) (uterine weight): did not result in any significant increase in the uterine weight
